From US20250154554A1, “ANTIMICROBIAL SUSCEPTIBILITY” (priority 2022, published 2025)

test system: Gram-positive bacteria (Staphylococcus spp, Enterococcus spp); assay: Reference method (RM): disk diffusion and/or broth microdilution, S/I/R classification, Gram-positive strains; assay type: cell-based; conditions: CLSI; FASTinov, Porto; spiked blood cultures;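 also: susceptibility categories assigned with the latest EUCAST breakpoint tables or CLSI M100 29th edition breakpoints, with quality control of the reference methods following EUCAST and CLSI guidance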
Protocol: For Colistin (on gram-negative bacteria) and vancomycin (in the case of Staphylococcus), the method used to determine the antimicrobial susceptibility was broth microdilution [5]. […] Standard methodologies were performed from the same inoculum used to spike the blood cultures. Quality control of the reference methods was also performed according to the recommendations of EUCAST and CLSI.
All the strains were classified as S, I or R according the reference methods. MIC was determined for vancomycin and colistin. The presence of ESBL on Enterobacterales group I, together with the screening for ESBL on Enterobacterales group II, and the screening for AmpC and presence of carbapenemases according EUCAST protocol for detection of mechanisms of resistance were also performed.
Positive blood cultures were spiked in blood agar and colonies identified and submitted to antimicrobial susceptibility assay according reference disk diffusion method and/or to MIC values determined by microdilution. The results were analysed using the most recent EUCAST breakpoint tables and the M100 (29th ed.) breakpoint tables from CLSI.

| Structure (SMILES) | RM R (strains resistant by reference method) | RM S (strains susceptible by reference method) |
| --- | --- | --- |
| CC1(C)S[C@@H]2[C@H](NC(=O)[C@H](N)c3ccccc3)C(=O)N2[C@H]1C(=O)O [Ampicillin] | 23 | 42 |
| CO[C@@]1(NC(=O)Cc2cccs2)C(=O)N2C(C(=O)O)=C(COC(N)=O)CS[C@@H]21 [Cefoxitin] | 17 | 26 |

same assay, conditions: CLSI; total of 3 sites; blood cultures

| Structure (SMILES) | RM R (strains resistant by reference method) | RM S (strains susceptible by reference method) |
| --- | --- | --- |
| CC1(C)S[C@@H]2[C@H](NC(=O)[C@H](N)c3ccccc3)C(=O)N2[C@H]1C(=O)O [Ampicillin] | 38 | 61 |
| CO[C@@]1(NC(=O)Cc2cccs2)C(=O)N2C(C(=O)O)=C(COC(N)=O)CS[C@@H]21 [Cefoxitin] | 52 | 48 |

same assay, conditions: EUCAST; FASTinov, Porto; spiked blood cultures

| Structure (SMILES) | RM R (strains resistant by reference method) | RM S (strains susceptible by reference method) |
| --- | --- | --- |
| CC1(C)S[C@@H]2[C@H](NC(=O)[C@H](N)c3ccccc3)C(=O)N2[C@H]1C(=O)O [Ampicillin] | 23 | 42 |
| CO[C@@]1(NC(=O)Cc2cccs2)C(=O)N2C(C(=O)O)=C(COC(N)=O)CS[C@@H]21 [Cefoxitin] | 17 | 26 |

same assay, conditions: EUCAST; total of 3 sites; blood cultures

| Structure (SMILES) | RM I (strains intermediate by reference method) | RM R (strains resistant by reference method) | RM S (strains susceptible by reference method) |
| --- | --- | --- | --- |
| CC1(C)S[C@@H]2[C@H](NC(=O)[C@H](N)c3ccccc3)C(=O)N2[C@H]1C(=O)O [Ampicillin] | 2 | 38 | 59 |
| CO[C@@]1(NC(=O)Cc2cccs2)C(=O)N2C(C(=O)O)=C(COC(N)=O)CS[C@@H]21 [Cefoxitin] |  | 52 | 48 |

same assay, conditions: number of strains I; EUCAST; Hospital Ramon et Cajal, Madrid; patients blood cultures

| Structure (SMILES) | EUCAST RM I |
| --- | --- |
| CC1(C)S[C@@H]2[C@H](NC(=O)[C@H](N)c3ccccc3)C(=O)N2[C@H]1C(=O)O [Ampicillin] | 2 |

same assay, conditions: number of strains resistant; CLSI; Hospital Ramon et Cajal, Madrid; patients blood cultures

| Structure (SMILES) | CLSI RM R |
| --- | --- |
| CC1(C)S[C@@H]2[C@H](NC(=O)[C@H](N)c3ccccc3)C(=O)N2[C@H]1C(=O)O [Ampicillin] | 10 |
| CO[C@@]1(NC(=O)Cc2cccs2)C(=O)N2C(C(=O)O)=C(COC(N)=O)CS[C@@H]21 [Cefoxitin] | 9 |

same assay, conditions: number of strains resistant; CLSI; Hospital S. João, Porto; patients' blood cultures

| Structure (SMILES) | CLSI RM R |
| --- | --- |
| CC1(C)S[C@@H]2[C@H](NC(=O)[C@H](N)c3ccccc3)C(=O)N2[C@H]1C(=O)O [Ampicillin] | 5 |
| CO[C@@]1(NC(=O)Cc2cccs2)C(=O)N2C(C(=O)O)=C(COC(N)=O)CS[C@@H]21 [Cefoxitin] | 26 |

same assay, conditions: number of strains resistant; EUCAST; Hospital Ramon et Cajal, Madrid; patients blood cultures

| Structure (SMILES) | EUCAST RM R |
| --- | --- |
| CC1(C)S[C@@H]2[C@H](NC(=O)[C@H](N)c3ccccc3)C(=O)N2[C@H]1C(=O)O [Ampicillin] | 10 |
| CO[C@@]1(NC(=O)Cc2cccs2)C(=O)N2C(C(=O)O)=C(COC(N)=O)CS[C@@H]21 [Cefoxitin] | 9 |

same assay, conditions: number of strains resistant; EUCAST; Hospital S. João, Porto; patients' blood cultures

| Structure (SMILES) | EUCAST RM R |
| --- | --- |
| CC1(C)S[C@@H]2[C@H](NC(=O)[C@H](N)c3ccccc3)C(=O)N2[C@H]1C(=O)O [Ampicillin] | 5 |
| CO[C@@]1(NC(=O)Cc2cccs2)C(=O)N2C(C(=O)O)=C(COC(N)=O)CS[C@@H]21 [Cefoxitin] | 26 |

same assay, conditions: number of strains susceptible; CLSI; Hospital Ramon et Cajal, Madrid; patients blood cultures

| Structure (SMILES) | CLSI RM S |
| --- | --- |
| CC1(C)S[C@@H]2[C@H](NC(=O)[C@H](N)c3ccccc3)C(=O)N2[C@H]1C(=O)O [Ampicillin] | 12 |
| CO[C@@]1(NC(=O)Cc2cccs2)C(=O)N2C(C(=O)O)=C(COC(N)=O)CS[C@@H]21 [Cefoxitin] | 13 |

same assay, conditions: number of strains susceptible; CLSI; Hospital S. João, Porto; patients' blood cultures

| Structure (SMILES) | CLSI RM S |
| --- | --- |
| CC1(C)S[C@@H]2[C@H](NC(=O)[C@H](N)c3ccccc3)C(=O)N2[C@H]1C(=O)O [Ampicillin] | 7 |
| CO[C@@]1(NC(=O)Cc2cccs2)C(=O)N2C(C(=O)O)=C(COC(N)=O)CS[C@@H]21 [Cefoxitin] | 9 |

same assay, conditions: number of strains susceptible; EUCAST; Hospital Ramon et Cajal, Madrid; patients blood cultures

| Structure (SMILES) | EUCAST RM S |
| --- | --- |
| CC1(C)S[C@@H]2[C@H](NC(=O)[C@H](N)c3ccccc3)C(=O)N2[C@H]1C(=O)O [Ampicillin] | 10 |
| CO[C@@]1(NC(=O)Cc2cccs2)C(=O)N2C(C(=O)O)=C(COC(N)=O)CS[C@@H]21 [Cefoxitin] | 13 |

same assay, conditions: number of strains susceptible; EUCAST; Hospital S. João, Porto; patients' blood cultures

| Structure (SMILES) | EUCAST RM S |
| --- | --- |
| CC1(C)S[C@@H]2[C@H](NC(=O)[C@H](N)c3ccccc3)C(=O)N2[C@H]1C(=O)O [Ampicillin] | 7 |
| CO[C@@]1(NC(=O)Cc2cccs2)C(=O)N2C(C(=O)O)=C(COC(N)=O)CS[C@@H]21 [Cefoxitin] | 9 |

test system: Gram-negative bacteria (Enterobacterales, Pseudomonas, Acinetobacter); assay: not given; conditions: CLSI; total of 3 sites; blood cultures

| Structure (SMILES) | RM I (strains intermediate by reference method) | RM R (strains resistant by reference method) | RM S (strains susceptible by reference method) |
| --- | --- | --- | --- |
| CC1(C)S[C@@H]2[C@H](NC(=O)[C@H](N)c3ccccc3)C(=O)N2[C@H]1C(=O)O [Ampicillin] | 1 | 164 | 66 |

same assay, conditions: EUCAST; total of 3 sites; blood cultures

| Structure (SMILES) | RM R (strains resistant by reference method) | RM S (strains susceptible by reference method) |
| --- | --- | --- |
| CC1(C)S[C@@H]2[C@H](NC(=O)[C@H](N)c3ccccc3)C(=O)N2[C@H]1C(=O)O [Ampicillin] | 165 | 66 |

same assay, conditions: number of strains I; CLSI; Hospital Ramon et Cajal, Madrid; patients' blood cultures

| Structure (SMILES) | CLSI RM I |
| --- | --- |
| CC1(C)S[C@@H]2[C@H](NC(=O)[C@H](N)c3ccccc3)C(=O)N2[C@H]1C(=O)O [Ampicillin] | 1 |

same assay, conditions: number of strains resistant; CLSI; FASTinov, Porto; spiked on blood cultures

| Structure (SMILES) | CLSI RM R |
| --- | --- |
| CC1(C)S[C@@H]2[C@H](NC(=O)[C@H](N)c3ccccc3)C(=O)N2[C@H]1C(=O)O [Ampicillin] | 67 |

same assay, conditions: number of strains resistant; CLSI; Hospital Ramon et Cajal, Madrid; patients' blood cultures

| Structure (SMILES) | CLSI RM R |
| --- | --- |
| CC1(C)S[C@@H]2[C@H](NC(=O)[C@H](N)c3ccccc3)C(=O)N2[C@H]1C(=O)O [Ampicillin] | 53 |

same assay, conditions: number of strains resistant; CLSI; Hospital S. João, Porto; patients' blood cultures

| Structure (SMILES) | CLSI RM R |
| --- | --- |
| CC1(C)S[C@@H]2[C@H](NC(=O)[C@H](N)c3ccccc3)C(=O)N2[C@H]1C(=O)O [Ampicillin] | 44 |

same assay, conditions: number of strains resistant; EUCAST; FASTinov, Porto; spiked on blood cultures

| Structure (SMILES) | EUCAST RM R |
| --- | --- |
| CC1(C)S[C@@H]2[C@H](NC(=O)[C@H](N)c3ccccc3)C(=O)N2[C@H]1C(=O)O [Ampicillin] | 67 |

same assay, conditions: number of strains resistant; EUCAST; Hospital Ramon et Cajal, Madrid; patients' blood cultures

| Structure (SMILES) | EUCAST RM R |
| --- | --- |
| CC1(C)S[C@@H]2[C@H](NC(=O)[C@H](N)c3ccccc3)C(=O)N2[C@H]1C(=O)O [Ampicillin] | 54 |

same assay, conditions: number of strains resistant; EUCAST; Hospital S. João, Porto; patients' blood cultures

| Structure (SMILES) | EUCAST RM R |
| --- | --- |
| CC1(C)S[C@@H]2[C@H](NC(=O)[C@H](N)c3ccccc3)C(=O)N2[C@H]1C(=O)O [Ampicillin] | 44 |

same assay, conditions: number of strains susceptible; CLSI; FASTinov, Porto; spiked on blood cultures

| Structure (SMILES) | CLSI RM S |
| --- | --- |
| CC1(C)S[C@@H]2[C@H](NC(=O)[C@H](N)c3ccccc3)C(=O)N2[C@H]1C(=O)O [Ampicillin] | 14 |

same assay, conditions: number of strains susceptible; CLSI; Hospital Ramon et Cajal, Madrid; patients' blood cultures

| Structure (SMILES) | CLSI RM S |
| --- | --- |
| CC1(C)S[C@@H]2[C@H](NC(=O)[C@H](N)c3ccccc3)C(=O)N2[C@H]1C(=O)O [Ampicillin] | 20 |

same assay, conditions: number of strains susceptible; CLSI; Hospital S. João, Porto; patients' blood cultures

| Structure (SMILES) | CLSI RM S |
| --- | --- |
| CC1(C)S[C@@H]2[C@H](NC(=O)[C@H](N)c3ccccc3)C(=O)N2[C@H]1C(=O)O [Ampicillin] | 32 |

same assay, conditions: number of strains susceptible; EUCAST; FASTinov, Porto; spiked on blood cultures

| Structure (SMILES) | EUCAST RM S |
| --- | --- |
| CC1(C)S[C@@H]2[C@H](NC(=O)[C@H](N)c3ccccc3)C(=O)N2[C@H]1C(=O)O [Ampicillin] | 14 |

same assay, conditions: number of strains susceptible; EUCAST; Hospital Ramon et Cajal, Madrid; patients' blood cultures

| Structure (SMILES) | EUCAST RM S |
| --- | --- |
| CC1(C)S[C@@H]2[C@H](NC(=O)[C@H](N)c3ccccc3)C(=O)N2[C@H]1C(=O)O [Ampicillin] | 20 |

same assay, conditions: number of strains susceptible; EUCAST; Hospital S. João, Porto; patients' blood cultures

| Structure (SMILES) | EUCAST RM S |
| --- | --- |
| CC1(C)S[C@@H]2[C@H](NC(=O)[C@H](N)c3ccccc3)C(=O)N2[C@H]1C(=O)O [Ampicillin] | 32 |
